Structures can show the parent of a compound that is named as a salt.
Columns and labels:
human receptors NK2 = biological target: T1, human receptors NK2 (Homo sapiens, UniProt P21452); assay: Affinity for the human NK2 receptor on transfected CHO-K1 cells; type: binding; conditions: CHO-K1 cells transfected with NK2 receptor
T1 construct: expressed in transfected cells; host or cells: CHO-K1
T1 sequence (P21452 1-398): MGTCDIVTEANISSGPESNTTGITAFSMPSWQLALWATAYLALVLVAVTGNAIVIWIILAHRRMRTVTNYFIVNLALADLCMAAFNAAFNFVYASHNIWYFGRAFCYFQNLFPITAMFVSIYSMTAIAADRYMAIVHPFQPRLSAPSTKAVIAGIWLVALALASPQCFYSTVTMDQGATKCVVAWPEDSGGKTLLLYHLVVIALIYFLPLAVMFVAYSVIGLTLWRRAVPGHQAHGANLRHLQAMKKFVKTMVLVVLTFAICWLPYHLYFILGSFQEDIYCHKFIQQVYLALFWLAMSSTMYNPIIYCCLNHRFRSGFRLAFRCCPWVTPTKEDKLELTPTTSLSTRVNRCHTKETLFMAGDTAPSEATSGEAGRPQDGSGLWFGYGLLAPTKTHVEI
Source text: (§1) The affinity for the human receptors NK1 and NK2 was studied on the human lymphoblasts IM-9 specifically expressing the NK1 receptor as described by D. G. PAYAN et al. (J. Biol. Chem. 1986, 261, 14321-14329)and on CHO-K1 cells transfected with the NK2 receptor based on the "CellPhect transfection" kit (Pharmacia).

human receptors NK1 = biological target: T2, human receptors NK1 (Homo sapiens, UniProt P25103); assay: Affinity for the human NK1 receptor on IM-9 lymphoblasts; type: binding; conditions: human lymphoblasts IM-9 expressing NK1
T2 construct: human lymphoblasts IM-9 specifically expressing the NK1 receptor; endogenous in cells; host or cells: IM-9 human lymphoblasts
T2 sequence (P25103 whole entry): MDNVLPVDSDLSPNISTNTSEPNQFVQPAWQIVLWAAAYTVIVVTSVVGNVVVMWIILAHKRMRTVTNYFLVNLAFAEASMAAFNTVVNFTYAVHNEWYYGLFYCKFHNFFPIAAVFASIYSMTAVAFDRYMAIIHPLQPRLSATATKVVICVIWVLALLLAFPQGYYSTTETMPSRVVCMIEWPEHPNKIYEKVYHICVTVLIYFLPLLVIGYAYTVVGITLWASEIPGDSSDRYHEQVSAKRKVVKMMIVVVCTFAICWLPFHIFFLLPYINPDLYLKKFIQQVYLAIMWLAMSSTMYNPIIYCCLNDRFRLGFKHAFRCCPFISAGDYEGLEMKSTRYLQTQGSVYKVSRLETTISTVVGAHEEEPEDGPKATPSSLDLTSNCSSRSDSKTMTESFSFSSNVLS
Source text: as §1

NK1 receptors = biological target: T3, NK1 receptors (Oryctolagus cuniculus, UniProt G1SEI7); assay: Isolated smooth muscle: rabbit vena cava (RVC), NK1-mediated contraction; type: biochemical
T3 construct: three preparations isolated from smooth muscle were used; from tissue; host or cells: rabbit vena cava
T3 sequence (G1SEI7 1-407): as the sequence (P25103 whole entry) above, with S12F, N189D, P369A, D371E, T376N, C386G, D391N, S402Y, V405M counted along it
Source text: (§2) In order to evaluate the functional activity of the compounds of the invention as antagonists of neurokinins, three preparations isolated from smooth muscle were used: rabbit vena cava (RVC), endothelium-free rabbit pulmonary artery (RPA) and rat portal vein (RatPV) whose contractile responses are respectively mediated by the NK1, NK2 and NK3 receptors as indicated by D. JUKIC et al. (Life Sci. 1991, 49, 1463-1469).
(§3) The antagonistic power of the compounds of the invention was expressed in the form of pA2 as defined by O. […] and H. O. SCHILD (Brit. J. Pharmacol. 1959, 14, 48-58).

NK2 receptors = biological target: T4, NK2 receptors (Oryctolagus cuniculus, UniProt P79218); assay: Isolated smooth muscle: endothelium-free rabbit pulmonary artery (RPA), NK2-mediated contraction; type: biochemical
T4 construct: three preparations isolated from smooth muscle were used; from tissue; host or cells: endothelium-free rabbit pulmonary artery
T4 sequence (P79218 1-384): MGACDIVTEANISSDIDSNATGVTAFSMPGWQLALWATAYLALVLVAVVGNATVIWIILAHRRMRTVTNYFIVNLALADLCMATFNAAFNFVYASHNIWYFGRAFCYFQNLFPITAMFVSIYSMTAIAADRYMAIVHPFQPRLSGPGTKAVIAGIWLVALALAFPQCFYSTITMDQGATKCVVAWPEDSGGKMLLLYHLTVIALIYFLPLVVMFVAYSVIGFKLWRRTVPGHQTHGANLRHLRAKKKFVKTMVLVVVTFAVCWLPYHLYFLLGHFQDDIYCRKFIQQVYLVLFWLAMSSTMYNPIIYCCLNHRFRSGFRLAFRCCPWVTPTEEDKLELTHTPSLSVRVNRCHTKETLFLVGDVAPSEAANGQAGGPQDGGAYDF
Source text: as §2, §3

NK3 receptors = biological target: T5, NK3 receptors (Rattus norvegicus, UniProt P16177); assay: Isolated smooth muscle: rat portal vein (RatPV), NK3-mediated contraction; type: biochemical
T5 construct: three preparations isolated from smooth muscle were used; from tissue; host or cells: rat portal vein
T5 sequence (P16177 1-452): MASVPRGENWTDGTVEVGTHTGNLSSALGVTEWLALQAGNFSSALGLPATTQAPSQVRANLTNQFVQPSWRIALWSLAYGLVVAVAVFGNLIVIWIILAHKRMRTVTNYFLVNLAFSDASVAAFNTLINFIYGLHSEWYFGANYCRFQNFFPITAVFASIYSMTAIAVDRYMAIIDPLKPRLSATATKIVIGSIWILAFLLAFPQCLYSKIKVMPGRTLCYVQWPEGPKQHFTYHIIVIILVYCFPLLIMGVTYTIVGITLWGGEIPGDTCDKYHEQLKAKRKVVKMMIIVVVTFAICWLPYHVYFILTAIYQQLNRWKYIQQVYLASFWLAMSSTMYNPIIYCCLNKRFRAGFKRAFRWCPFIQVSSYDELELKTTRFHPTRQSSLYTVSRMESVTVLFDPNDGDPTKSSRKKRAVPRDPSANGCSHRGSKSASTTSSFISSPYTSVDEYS
Source text: as §2, §3

mice (CD1 male) = assay: animal or person; type: in vivo; conditions: iv
[1] = test system: peritoneal mast cells of male rats; assay: Mast cell degranulation in vitro (histamine release); type: cell-based; conditions: rat peritoneal mast cells, 20 min incubation, up to the concentration of 10^-4 M
Procedure: The studies are carried out on peritoneal mast cells of male rats: Sprague-Dawley of mean weight 350 to 400 g and are killed by euthanasia by inhalation of CO2. A peritoneal lavage is carried out with 20 ml of buffer (NaCl 150 mM, KCl 2.7 mM, CaCl2, 0.9 mM, Na2 HPO4, 3 mM, KH2 PO4, 3.5 mM, glucose 5.6 mM, bovine serum albumin 1 mg/ml, pH 6.8).
The lavage liquid is centrifuged at 400 g for 10 min at 4° C. and taken up in a buffer at a density of 2×10^4 mast cells/mi. The compounds are incubated at an increasing concentration for 20 min. The reaction is stopped by placing the tubes on ice and a centrifugation is carried out with 700 g for 10 min at 4° C. The supernatant and the pellet are tested by fluorimetry after condensation with o-phthaldehyde. The histamine released from the cells into the supernatant thus assayed is expressed as percentage of the total histamine content of the cells.

guinea pigs = assay: Inhibition of plasma extravasation induced by substance P in guinea pig bladder; type: in vivo; conditions: 0.1 mg/kg intravenously 5 minutes before substance P (1 μg/kg iv)
Procedure: The effect of the compounds on plasma extravasation caused by intravenous injection of substance P (1 μg/kg) in guinea pigs was evaluated on the bladder, according to the method described for rats by C. GARRET et al. (Proc. Natl. Acad. Sci., USA 1991, 88, 10208-20212). Vesical accumulation of Evans blue injected IV at the same time as substance P and 10 minutes before sacrificing, was quantified by spectrophotometry after extraction of the colorant with acetone. The inhibitory activity of the compounds administered intravenously 5 minutes before substance P was expressed as % inhibition compared with a control batch (8 animals per batch).

male Hartley guinea pigs = assay: Inhibition of bronchoconstriction induced by substance P in guinea pigs; type: in vivo; conditions: dose of 1 μmol/kg i.v.
Procedure: The study is carried out on male Hartley guinea pigs (Charles River) of a mean weight of 300 to 400 g. […] The animals were pretreated with pyrilamine (1 mg/kg iv), propanolol (1 mg/kg iv). The criterion for assessing the bronchoconstriction is the increase in the tracheal insufflation pressure (TIP) induced by the injection of substance P via the iv route at the dose of 2 nM/kg iv, each animal being its own control. The injection of the test product being carried out relative to the time TO injection of the product. The results are expressed as percentage inhibition of the substance P-induced bronchoconstriction, this percentage being calculated according to the following formula: (ΔTIP before product-ΔTIP after product)/ΔTIP before product (expressed as percentage).

| SMILES | Ki (human receptors NK2) | Ki (human receptors NK1) | NK1 (VCL) pA2 (NK1 receptors) | NK2 (APL) pA2 (NK2 receptors) | NK3 (VPR) pA2 (NK3 receptors) | ED50 (dose which increases the reaction time by 50%) (mice (CD1 male); mouse, in vivo) | Mast cell degranulation (histamine release) [1] | % inhibition of substance P-induced plasma extravasation (bladder) (guinea pigs) | % Inhibition of substance P-induced bronchoconstriction (male Hartley guinea pigs) | ED50 (mice (CD1 male); Mus musculus, read-out: ED50 (dose which increases the reaction time by 50%)) |
| --- | --- | --- | --- | --- | --- | --- | --- | --- | --- | --- |
| CN(Cc1ccccc1)C(=O)C(CC1CCc2ccccc2C1)NC(=O)C1CC(O)CN1C(=O)c1cn(CCCCc2nn[n-]n2)c2ccccc12.[K+] (mixture of isomers) [Example 3, {1-[4-(1H-tetrazol-5-yl)butyl]indol-3-yl}carbonyl-Hyp-Thn-NMeBzl, potassiu m salt] | 1400 nM | 14 nM | 7.87 | 5.87 | 5.87 | – | – | – | – | – |
| CN(Cc1ccccc1)C(=O)C(Cc1ccc2ccccc2c1)NC(=O)C1CC(O)CN1C(=O)c1cn(CCCCc2nn[n-]n2)c2ccccc12.[K+] (stereo not drawn) [Example 1, {1-[4-(1H-tetrazol-5-yl)butyl]indol-3-yl}carbonyl-Hyp-Nal-NMeBzl, potassiu m salt] | 2400 nM | – | 9.57 | 5.57 | 4.96 | 0.018 mg/kg | does not cause mast cell degranulation | 56% | 95% | – |
| CN(Cc1ccccc1)C(=O)C(Cc1ccc2c(c1)CCCC2)NC(=O)C1CC(O)CN1C(=O)c1cn(CCCCc2nn[n-]n2)c2ccccc12.[K+] (stereo not drawn) [Example 2, {1-[4-(1H-tetrazol-5-yl)butyl]indol-3-yl}carbonyl-Hyp-Tna-NMeBzl, potassiu m salt] | 3600 nM | 14 nM | 8.17 | 6.47 | 5.87 | – | – | – | – | – |
| CN(Cc1ccccc1)C(=O)C(Cc1ccc2ccccc2c1)NC(=O)C1CC(O)CN1C(=O)c1cn(Cc2nn[n-]n2)c2ccccc12.[K+] (stereo not drawn) [Example 4, {1-[(1H-tetrazol-5-yl)methyl]indol-3-yl}carbonyl-Hyp-Nal-NMeBzl,potassium salt] | > 1000 nM | 0.78 nM | 8.14 | – | 5.84 | – | – | – | 61% | – |
| CN(Cc1ccccc1)C(=O)C(Cc1ccc2ccccc2c1)NC(=O)C1CC(O)CN1C(=O)c1cn(CCc2nn[nH]n2)c2ccccc12 (stereo not drawn) [Example 5, {1-[2-(1H-tetrazol-5-yl)ethyl]indol-3-yl}carbonyl-Hyp-Nal-NMeBzl, potassiu m salt] | > 10000 nM | 0.63 nM | – | – | – | – | – | – | – | – |
| CN(Cc1ccccc1)C(=O)C(Cc1ccc2ccccc2c1)NC(=O)C1CC(O)CN1C(=O)c1cn(CCCc2nn[n-]n2)c2ccccc12.[K+] (stereo not drawn) [Example 6, [1-[3-(1H-tetrazol-5-yl)propyl]indol-3-yl}carbonyl-Hyp-Nal-NMeBzl, potassium salt] | > 1000 nM | 1.2 nM | 8.46 | 5.20 | – | – | – | – | 60% | – |
| CN(Cc1ccccc1)C(=O)C(Cc1ccc2ccccc2c1)NC(=O)C1CC(O)CN1C(=O)c1cn(CCCCCc2nn[n-]n2)c2ccccc12.[K+] (stereo not drawn) [Example 7, {1-[5-(1H-tetrazol-5-yl)pentyl]indol-3-yl}carbonyl-Hyp-Nal-NMeBzl, potassium salt] | 10000 nM | 5.9 nM | 7.88 | – | – | – | – | – | 58% | – |
| CN(Cc1ccccc1)C(=O)C(Cc1cccs1)NC(=O)C1CC(O)CN1C(=O)c1cn(CCCCc2nn[nH]n2)c2ccccc12 (stereo not drawn) [Example 8, {1-[4-(1H-tetrazol-5-yl)butyl]indol-3-yl}carbonyl-Hyp-Thi-NMeBzl, potassiu m salt] | > 1000 nM | 110 nM | – | – | – | – | – | – | – | – |
| CN(Cc1ccccc1)C(=O)C(Cc1ccc(Cl)cc1)NC(=O)C1CC(O)CN1C(=O)c1cn(CCCCc2nn[nH]n2)c2ccccc12 (stereo not shown) [Example 9, {1-[4-(1H-tetrazol-5-yl)butyl]indol-3-yl}carbonyl-Hyp-(4-chloro)Phe-NMeBz potassium salt] | 3900 nM | 22 nM | – | – | – | – | – | – | – | – |
| COc1ccc(CC(NC(=O)C2CC(O)CN2C(=O)c2cn(CCCCc3nn[nH]n3)c3ccccc23)C(=O)N(C)Cc2ccccc2)cc1OC (stereo not shown) [Example 10, {1-[4-(1H-tetrazol-5-yl)butyl]indol-3-yl}carbonyl-Hyp-(3,4-dimethoxy)Phe-NMeBzl, potassium salt] | > 10000 nM | 180 nM | – | – | – | – | – | – | – | – |
| CN(Cc1ccccc1)C(=O)C(CC1CCCCC1)NC(=O)C1CC(O)CN1C(=O)c1cn(CCCCc2nn[nH]n2)c2ccccc12 (stereo not drawn) [Example 11, {1-[4-(1H-tetrazol-5-yl)butyl]indol-3-yl}carbonyl-Hyp-Cha-NMeBzl, potassium salt] | > 1000 nM | 52 nM | – | – | – | – | – | – | – | – |
| CN1CC[C@]23c4c5ccc(O)c4O[C@H]2[C@@H](O)C=C[C@H]3[C@H]1C5 [morphine, reference compound] | – | – | – | – | – | – | – | – | – | 0.3 mg/kg |

From patent publication US5561113A, “New pseudopeptide compounds of neurokinins” (priority 1994, dated 1996)
